Drawing on PMC6171417, “Carbonic anhydrase inhibition with a series of novel benzenesulfonamide-triazole conjugates” (Journal of Enzyme Inhibition and Medicinal Chemistry, 2018), this text covers inhibition for 9 compounds.

Common to all, as to test: cells
The test system of one assay is TK-10. On the set-up: species or system NCI human tumour cell line panel; NCI one-dose anti-proliferative screen, human tumour cell line panel, growth inhibition percent (GI%). As to conditions: Homo sapiens, TK-10; growth inhibition (GI%), single dose.
The subject of assay [1] is MDA-MB-435. On the set-up: species or system NCI human tumour cell line panel; NCI one-dose anti-proliferative screen, human tumour cell line panel, growth inhibition percent (GI%). As to conditions: Homo sapiens, MDA-MB-435; growth inhibition (GI%), single dose.
For the next assay, the system named is SF-268. Also on record: species or system NCI human tumour cell line panel; NCI one-dose anti-proliferative screen, human tumour cell line panel, growth inhibition percent (GI%). As to conditions: Homo sapiens, SF-268; growth inhibition (GI%), single dose.
The test system of another assay is COLO 205. Also on record: species or system NCI human tumour cell line panel; NCI one-dose anti-proliferative screen, human tumour cell line panel, growth inhibition percent (GI%). The settings on record: Homo sapiens, COLO 205; growth inhibition (GI%), single dose.
The next assay relates to OVCAR-4. On the set-up: species or system NCI human tumour cell line panel; NCI one-dose anti-proliferative screen, human tumour cell line panel, growth inhibition percent (GI%). The settings on record: Homo sapiens, OVCAR-4; growth inhibition (GI%), single dose.
For assay [2], the system named is MDA-MB-435. On the set-up: species or system NCI human tumour cell line panel. The settings on record: Homo sapiens, MDA-MB-435; growth inhibition (GI%), single dose.
A further assay concerns MCF7. On the set-up: species or system NCI human tumour cell line panel. As to conditions: Homo sapiens, MCF7; growth inhibition (GI%), single dose.
For a further assay, the system named is HL-60(TB). Also on record: species or system NCI human tumour cell line panel. As to conditions: Homo sapiens, HL-60; growth inhibition (GI%), single dose.
The next assay relates to A498. On the set-up: species or system NCI human tumour cell line panel. As to conditions: Homo sapiens, A498; growth inhibition (GI%), single dose.
For the next assay, the system named is EKVX. Also on record: species or system NCI human tumour cell line panel. As to conditions: Homo sapiens, EKVX; growth inhibition (GI%), single dose.
The test system of another assay is T-47D. On the set-up: species or system NCI human tumour cell line panel. The settings on record: Homo sapiens, T47D; growth inhibition (GI%), single dose.
Another assay relates to MOLT-4. Also on record: species or system NCI human tumour cell line panel. As to conditions: Homo sapiens, MOLT-4; growth inhibition (GI%), single dose.
The next assay relates to LOX IMVI. Also on record: species or system NCI human tumour cell line panel. As to conditions: Homo sapiens, LOX IMVI; growth inhibition (GI%), single dose.
A further assay has as its system PC-3. Also on record: species or system NCI human tumour cell line panel. The settings on record: Homo sapiens, PC-3; growth inhibition (GI%), single dose.
The next assay concerns KM12. Also on record: species or system NCI human tumour cell line panel; NCI one-dose anti-proliferative screen, human tumour cell line panel, growth inhibition percent (GI%). As to conditions: Homo sapiens, KM12; growth inhibition (GI%), single dose.
The test system of another assay is MDA-MB-231/ATCC. On the set-up: species or system NCI human tumour cell line panel; NCI one-dose anti-proliferative screen, human tumour cell line panel, growth inhibition percent (GI%). The settings on record: Homo sapiens, MDA-MB-231; growth inhibition (GI%), single dose.
The subject of the next assay is IGROV1. On the set-up: species or system NCI human tumour cell line panel; NCI one-dose anti-proliferative screen, human tumour cell line panel, growth inhibition percent (GI%). As to conditions: Homo sapiens, IGROV-1; growth inhibition (GI%), single dose.
The subject of a further assay is HCT-15. Also on record: species or system NCI human tumour cell line panel; NCI one-dose anti-proliferative screen, human tumour cell line panel, growth inhibition percent (GI%). The settings on record: Homo sapiens, HCT-15; growth inhibition (GI%), single dose.
The test system of a further assay is SK-MEL-2. Also on record: species or system NCI human tumour cell line panel; NCI one-dose anti-proliferative screen, human tumour cell line panel, growth inhibition percent (GI%). As to conditions: Homo sapiens, SK-MEL-2; growth inhibition (GI%), single dose.
Another assay concerns SF-295. On the set-up: species or system NCI human tumour cell line panel; NCI one-dose anti-proliferative screen, human tumour cell line panel, growth inhibition percent (GI%). As to conditions: Homo sapiens, SF-295; growth inhibition (GI%), single dose.
A further assay has as its system NCI/ADR-RES. Also on record: species or system NCI human tumour cell line panel; NCI one-dose anti-proliferative screen, human tumour cell line panel, growth inhibition percent (GI%). As to conditions: Homo sapiens, NCI/ADR-RES; growth inhibition (GI%), single dose.
A further assay deals with HCC-2998. Also on record: species or system NCI human tumour cell line panel; NCI one-dose anti-proliferative screen, human tumour cell line panel, growth inhibition percent (GI%). As to conditions: Homo sapiens, HCC 2998; growth inhibition (GI%), single dose.

The inhibition is the share of the control response that was lost under treatment. High values mean strong suppression, low ones little suppression. `N#Cc1nnn(-c2ccc(S(N)(=O)=O)cc2)c1N` [compound 3, 3]: the inhibition at 10 µM in the assay with TK-10 came out at 9.2%; with MDA-MB-435 [1] it was 3.1%; with SF-268, 2.8%; in the assay on COLO 205, 5.1%; in the assay on OVCAR-4, 4.1%.

Consider `N#Cc1nnn(-c2ccc(S(N)(=O)=O)cc2)c1NC(=O)CCl` [compound 5, 5], for which the inhibition at 10 µM in the assay on MDA-MB-435 [2] came to 0.4%; in the assay with MCF7, 9.1%; in the assay with HL-60(TB), 22.5%; in the assay on A498 it was 8.6%; in the assay on EKVX it was 8.6%; in the assay with T-47D it was 4.8%. For the same compound, the inhibition at 10 µM came to 7.7% with MOLT-4, 5.5% in the assay with LOX IMVI and 10.3% with PC-3.

Take `N#Cc1nnn(-c2ccc(S(N)(=O)=O)cc2)c1NCC(=O)c1ccccc1` [compound 7, 7]: the inhibition at 10 µM was 0.6% in the assay on KM12; 8.3% in the assay on MDA-MB-435 [1]; 6.5% in the assay on SF-268; 4.9% in the assay with MDA-MB-231/ATCC; 0.5% with IGROV1; 10.2% with OVCAR-4. In addition, the inhibition at 10 µM in the assay on HCT-15 worked out at 1.7%; in the assay with SK-MEL-2, 2.2%.

As for `N#Cc1nnn(-c2ccc(S(N)(=O)=O)cc2)c1/N=C/c1ccc(Cl)cc1` [compound 9, 9], the inhibition at 10 µM came to 7.6% in the assay with TK-10; 0.5% with KM12; 3.4% in the assay with MDA-MB-435 [1]; 0.3% with SF-295; 5.4% in the assay on NCI/ADR-RES; 4.3% in the assay with HCT-15.

`N#Cc1nnn(-c2ccc(S(N)(=O)=O)cc2)c1NS(=O)(=O)c1ccccc1` [compound 11, N-(4-cyano-1-(4-sulfamoylphenyl)-1H-1,2,3-triazol-5-yl)benzenesulfonamide]: the inhibition at 10 µM in the assay on IGROV1 worked out at 3.3%; with NCI/ADR-RES it was 3.2%.

With `N#Cc1c(-c2ccc(Cl)cc2)nc2c(nnn2-c2ccc(S(N)(=O)=O)cc2)c1N` [compound 16, 4-(7-amino-5-(4-chlorophenyl)-6-cyano-3H-[1,2,3]triazolo[4,5-b]pyridin-3-yl)benzenesulfonamide], the inhibition at 10 µM was determined as 2.9% with MDA-MB-435 [1]; 5.7% with SF-295; 5.4% in the assay on SF-268; 24.2% with MDA-MB-231/ATCC; 16.4% in the assay with IGROV1; 4.2% in the assay with NCI/ADR-RES. Besides, the inhibition at 10 µM is 21.6% in the assay with OVCAR-4 and 1.6% in the assay on HCT-15.

Turning to `CN(C)c1ccc(-c2nc3c(nnn3-c3ccc(S(N)(=O)=O)cc3)c(N)c2C#N)cc1` [compound 17, 4-(7-amino-6-cyano-5-(4-(dimethylamino)phenyl)-3H-[1,2,3]triazolo[4,5-b]pyridin-3-yl)benzenesulfonamide], the inhibition at 10 µM in the assay with KM12 came out at 5.9%; in the assay with SF-295 it was 3.1%; with SF-268, 3.9%; in the assay on HCC-2998 it was 3.9%; in the assay on MDA-MB-231/ATCC, 18%; with IGROV1 it was 12.1%. For the same compound, the inhibition at 10 µM was 17% in the assay with COLO 205, 0.8% with OVCAR-4, 1.2% in the assay with HCT-15 and 2.3% with SK-MEL-2.

Turning to `Nc1nc(=S)[nH]c2c1nnn2-c1ccc(S(N)(=O)=O)cc1` [compound 18, 4-(7-amino-5-thioxo-4,5-dihydro-3H-[1,2,3]triazolo[4,5-d]pyrimidin-3-yl)benzenesulfonamide], the inhibition at 10 µM came to 1.5% with SF-268, 14.8% in the assay on MDA-MB-231/ATCC and 7.9% in the assay on OVCAR-4.

For the compound `CCn1c(=S)[nH]c2c(nnn2-c2ccc(S(N)(=O)=O)cc2)c1=N` [compound 20, 4-(6-ethyl-7-imino-5-thioxo-4,5,6,7-tetrahydro-3H-[1,2,3]triazolo[4,5-d]pyrimidin-3-yl)benzenesulfonamide], the inhibition at 10 µM in the assay with HCC-2998 came out at 2.2%; with NCI/ADR-RES, 2.2%; in the assay with SK-MEL-2, 8.2%.
